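Briefly, cells in 96-well plates were exposed to five compound concentrations for 48 h, and endpoints were estimated by linear interpolation. Here, GI50 denotes the concentration required for 50% inhibition of growth.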 Activity calls are given as the source filed them. Cut-off read from the data, not from the text of the source: active = GI50 up to about 1.1 µM and inactive = higher. Square brackets hold non-standard residues; d marks the D form. Peptide text beside a SMILES is read from it. Ac5c = NC1(C(=O)O)CCCC1
Tests used:
Assay in all cases: NCI tumour cell line growth inhibition, 48 h
CCRF-CEM = test system: CCRF-CEM
SK-MEL-2 = test system: SK-MEL-2
SF-268 = test system: SF-268
OVCAR-5 = test system: OVCAR-5
SF-539 = test system: SF-539
786-0 = test system: 786-0
LOX IMVI = test system: LOX IMVI
DU-145 = test system: DU-145
SF-295 = test system: SF-295
SNB-75 = test system: SNB-75
HL-60 = test system: HL-60
UACC-62 = test system: UACC-62
TK-10 = test system: TK-10
CAKI-1 = test system: CAKI-1
ACHN = test system: ACHN
EKVX = test system: EKVX
A549 = test system: A549
SK-MEL-5 = test system: SK-MEL-5
Hs-578T = test system: Hs-578T
UACC-257 = test system: UACC-257
A498 = test system: A498
SN12C = test system: SN12C
BT-549 = test system: BT-549
MOLT-4 = test system: MOLT-4
U-251 = test system: U-251
OVCAR-4 = test system: OVCAR-4
HCC 2998 = test system: HCC 2998
K562 = test system: K562
RPMI-8226 = test system: RPMI-8226
COLO 205 = test system: COLO 205
IGROV-1 = test system: IGROV-1
MCF7 = test system: MCF7
NCI-H23 = test system: NCI-H23
Malme-3M = test system: Malme-3M
SR = test system: SR
UO-31 = test system: UO-31
NCI-H522 = test system: NCI-H522
PC-3 = test system: PC-3
NCI-H226 = test system: NCI-H226
T47D = test system: T47D
HCT-15 = test system: HCT-15
HT-29 = test system: HT-29
RXF 393 = test system: RXF 393
MDA-N = test system: MDA-N
M14 = test system: M14
KM12 = test system: KM12
NCI/ADR-RES = test system: NCI/ADR-RES
OVCAR-3 = test system: OVCAR-3
NCI-H460 = test system: NCI-H460
SK-OV-3 = test system: SK-OV-3
HCT-116 = test system: HCT-116
MDA-MB-231 = test system: MDA-MB-231
HOP-62 = test system: HOP-62
SW-620 = test system: SW-620
SNB-19 = test system: SNB-19
SK-MEL-28 = test system: SK-MEL-28
OVCAR-8 = test system: OVCAR-8
MDA-MB-435 = test system: MDA-MB-435
HOP-92 = test system: HOP-92

## CC(N)(Cc1c[nH]c2ccccc12)C(=O)O (stereo not given)
CCRF-CEM
  GI50: > 100 µM (inactive)
SK-MEL-2
  GI50: > 100 µM (inactive)
SF-268
  GI50: > 100 µM (inactive)
OVCAR-5
  GI50: > 100 µM (inactive)
SF-539
  GI50: > 100 µM (inactive)
786-0
  GI50: > 100 µM (inactive)
LOX IMVI
  GI50: > 100 µM (inactive)
DU-145
  GI50: > 100 µM (inactive)
SF-295
  GI50: > 100 µM (inactive)
SNB-75
  GI50: > 100 µM (inactive)
HL-60
  GI50: > 100 µM (inactive)
UACC-62
  GI50: > 100 µM (inactive)
TK-10
  GI50: > 100 µM (inactive)
CAKI-1
  GI50: > 100 µM (inactive)
ACHN
  GI50: > 100 µM (inactive)
EKVX
  GI50: > 100 µM (inactive)
A549
  GI50: > 100 µM (inactive)
SK-MEL-5
  GI50: > 100 µM (inactive)
Hs-578T
  GI50: > 100 µM (inactive)
UACC-257
  GI50: > 100 µM (inactive)
A498
  GI50: > 100 µM (inactive)
SN12C
  GI50: > 100 µM (inactive)
BT-549
  GI50: > 100 µM (inactive)
MOLT-4
  GI50: > 100 µM (inactive)
U-251
  GI50: > 100 µM (inactive)
OVCAR-4
  GI50: > 100 µM (inactive)
HCC 2998
  GI50: > 100 µM (inactive)
K562
  GI50: > 100 µM (inactive)
RPMI-8226
  GI50: > 100 µM (inactive)
COLO 205
  GI50: > 100 µM (inactive)
IGROV-1
  GI50: > 100 µM (inactive)
MCF7
  GI50: > 100 µM (inactive)
NCI-H23
  GI50: > 100 µM (inactive)
Malme-3M
  GI50: > 100 µM (inactive)
SR
  GI50: > 100 µM (inactive)
UO-31
  GI50: > 100 µM (inactive)
NCI-H522
  GI50: > 100 µM (inactive)
PC-3
  GI50: > 100 µM (inactive)
NCI-H226
  GI50: > 100 µM (inactive)
T47D
  GI50: > 100 µM (inactive)
HCT-15
  GI50: > 100 µM
HT-29
  GI50: > 100 µM (inactive)
RXF 393
  GI50: > 100 µM (inactive)
MDA-N
  GI50: > 100 µM (inactive)
M14
  GI50: > 100 µM (inactive)
KM12
  GI50: > 100 µM (inactive)
NCI/ADR-RES
  GI50: > 100 µM (inactive)
OVCAR-3
  GI50: > 100 µM (inactive)
NCI-H460
  GI50: > 100 µM (inactive)
SK-OV-3
  GI50: > 100 µM (inactive)
HCT-116
  GI50: > 100 µM (inactive)
MDA-MB-231
  GI50: > 100 µM (inactive)
HOP-62
  GI50: > 100 µM (inactive)
SW-620
  GI50: > 100 µM (inactive)
SNB-19
  GI50: > 100 µM (inactive)
SK-MEL-28
  GI50: > 100 µM (inactive)
OVCAR-8
  GI50: > 100 µM (inactive)
MDA-MB-435
  GI50: > 100 µM (inactive)

## CSc1c(C#N)c(=O)n(N)c2[nH]nc(C)c12
CCRF-CEM
  GI50: > 100 µM (inactive)
SK-MEL-2
  GI50: > 100 µM (inactive)
SF-268
  GI50: > 100 µM (inactive)
SF-539
  GI50: > 100 µM (inactive)
786-0
  GI50: > 100 µM (inactive)
LOX IMVI
  GI50: > 100 µM (inactive)
DU-145
  GI50: > 100 µM (inactive)
SNB-75
  GI50: > 100 µM (inactive)
HL-60
  GI50: > 100 µM (inactive)
UACC-62
  GI50: > 100 µM (inactive)
TK-10
  GI50: > 100 µM (inactive)
CAKI-1
  GI50: 45.2 µM (inactive)
EKVX
  GI50: > 100 µM (inactive)
A549
  GI50: > 100 µM (inactive)
SK-MEL-5
  GI50: > 100 µM (inactive)
Hs-578T
  GI50: > 100 µM (inactive)
UACC-257
  GI50: > 100 µM (inactive)
A498
  GI50: 91.6 µM (inactive)
SN12C
  GI50: > 100 µM (inactive)
BT-549
  GI50: > 100 µM (inactive)
MOLT-4
  GI50: > 100 µM (inactive)
U-251
  GI50: > 100 µM (inactive)
OVCAR-4
  GI50: > 100 µM (inactive)
HCC 2998
  GI50: > 100 µM (inactive)
K562
  GI50: > 100 µM (inactive)
RPMI-8226
  GI50: > 100 µM (inactive)
COLO 205
  GI50: > 100 µM (inactive)
MCF7
  GI50: > 100 µM (inactive)
NCI-H23
  GI50: > 100 µM (inactive)
Malme-3M
  GI50: > 100 µM (inactive)
SR
  GI50: > 100 µM (inactive)
UO-31
  GI50: > 100 µM (inactive)
NCI-H522
  GI50: > 100 µM (inactive)
PC-3
  GI50: > 100 µM (inactive)
NCI-H226
  GI50: > 100 µM (inactive)
T47D
  GI50: > 100 µM (inactive)
HCT-15
  GI50: > 100 µM
HT-29
  GI50: > 100 µM (inactive)
RXF 393
  GI50: > 100 µM (inactive)
MDA-N
  GI50: > 100 µM (inactive)
KM12
  GI50: > 100 µM (inactive)
NCI/ADR-RES
  GI50: > 100 µM (inactive)
NCI-H460
  GI50: > 100 µM (inactive)
SK-OV-3
  GI50: > 100 µM (inactive)
HCT-116
  GI50: > 100 µM (inactive)
MDA-MB-231
  GI50: > 100 µM (inactive)
SW-620
  GI50: > 100 µM (inactive)
SNB-19
  GI50: > 100 µM (inactive)
SK-MEL-28
  GI50: > 100 µM (inactive)
OVCAR-8
  GI50: > 100 µM (inactive)
MDA-MB-435
  GI50: > 100 µM (inactive)

## NCC(=O)NC1(C(=O)O)CCCC1 (H-Gly-[Ac5c]-OH)
SK-MEL-2
  GI50: > 100 µM (inactive)
SF-268
  GI50: > 100 µM (inactive)
OVCAR-5
  GI50: > 100 µM (inactive)
SF-539
  GI50: > 100 µM (inactive)
786-0
  GI50: > 100 µM (inactive)
LOX IMVI
  GI50: > 100 µM (inactive)
DU-145
  GI50: > 100 µM (inactive)
SF-295
  GI50: > 100 µM (inactive)
SNB-75
  GI50: > 100 µM (inactive)
UACC-62
  GI50: > 100 µM (inactive)
TK-10
  GI50: > 100 µM (inactive)
CAKI-1
  GI50: > 100 µM (inactive)
ACHN
  GI50: > 100 µM (inactive)
EKVX
  GI50: > 100 µM (inactive)
A549
  GI50: > 100 µM (inactive)
SK-MEL-5
  GI50: > 100 µM (inactive)
Hs-578T
  GI50: > 100 µM (inactive)
UACC-257
  GI50: > 100 µM (inactive)
A498
  GI50: > 100 µM (inactive)
SN12C
  GI50: > 100 µM (inactive)
BT-549
  GI50: > 100 µM (inactive)
MOLT-4
  GI50: > 100 µM (inactive)
U-251
  GI50: > 100 µM (inactive)
HOP-92
  GI50: > 100 µM (inactive)
OVCAR-4
  GI50: > 100 µM (inactive)
HCC 2998
  GI50: > 100 µM (inactive)
K562
  GI50: > 100 µM (inactive)
RPMI-8226
  GI50: > 100 µM (inactive)
COLO 205
  GI50: > 100 µM (inactive)
IGROV-1
  GI50: > 100 µM (inactive)
MCF7
  GI50: > 100 µM (inactive)
NCI-H23
  GI50: > 100 µM (inactive)
Malme-3M
  GI50: > 100 µM (inactive)
SR
  GI50: > 100 µM (inactive)
UO-31
  GI50: > 100 µM (inactive)
NCI-H522
  GI50: > 100 µM (inactive)
PC-3
  GI50: > 100 µM (inactive)
T47D
  GI50: > 100 µM (inactive)
HCT-15
  GI50: > 100 µM
HT-29
  GI50: > 100 µM (inactive)
RXF 393
  GI50: > 100 µM (inactive)
MDA-N
  GI50: > 100 µM (inactive)
M14
  GI50: > 100 µM (inactive)
KM12
  GI50: > 100 µM (inactive)
NCI/ADR-RES
  GI50: > 100 µM (inactive)
OVCAR-3
  GI50: > 100 µM (inactive)
NCI-H460
  GI50: > 100 µM (inactive)
SK-OV-3
  GI50: > 100 µM (inactive)
HCT-116
  GI50: > 100 µM (inactive)
MDA-MB-231
  GI50: > 100 µM (inactive)
HOP-62
  GI50: > 100 µM (inactive)
SW-620
  GI50: > 100 µM (inactive)
SNB-19
  GI50: > 100 µM (inactive)
SK-MEL-28
  GI50: > 100 µM (inactive)
OVCAR-8
  GI50: > 100 µM (inactive)
MDA-MB-435
  GI50: > 100 µM (inactive)

Source: ChEMBL document CHEMBL1201862, “PubChem BioAssay data set” (2004)
